From patent US10168342B2, “Lipid probes and uses thereof” (THE SCRIPPS RESEARCH INSTITUTE, priority 2015, dated 2019)
Read-outs that look alike come from different tables or passages of the source.

How the values were obtained:
[1] = molecular target: T1, AEA-DA lipid probe targets in Neuro2a cells (Mus musculus, UniProt Q91WS0)
T1 sequence (Q91WS0 1-108): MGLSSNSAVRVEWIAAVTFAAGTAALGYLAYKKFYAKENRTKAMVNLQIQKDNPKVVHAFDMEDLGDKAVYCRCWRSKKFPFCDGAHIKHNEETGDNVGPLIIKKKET

[2] = molecular target: AEA-DA lipid probe targets in Neuro2a cells (Mus musculus, UniProt Q8BG32)
[3] = molecular target: T2, AEA-DA lipid probe targets in Neuro2a cells (Mus musculus, UniProt Q9D6K9)
T2 sequence (Q9D6K9 1-414): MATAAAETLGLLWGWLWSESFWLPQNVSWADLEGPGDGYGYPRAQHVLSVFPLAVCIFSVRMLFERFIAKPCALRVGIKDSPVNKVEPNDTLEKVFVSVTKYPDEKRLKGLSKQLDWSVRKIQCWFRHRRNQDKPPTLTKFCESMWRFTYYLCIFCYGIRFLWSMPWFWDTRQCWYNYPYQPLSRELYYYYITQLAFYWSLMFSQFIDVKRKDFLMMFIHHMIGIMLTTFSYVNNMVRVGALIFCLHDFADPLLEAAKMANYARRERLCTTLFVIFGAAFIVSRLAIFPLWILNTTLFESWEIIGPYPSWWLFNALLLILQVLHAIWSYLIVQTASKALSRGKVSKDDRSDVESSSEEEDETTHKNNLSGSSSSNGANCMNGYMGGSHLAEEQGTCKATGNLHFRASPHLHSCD

[4] = molecular target: AEA-DA lipid probe targets in Neuro2a cells (Mus musculus, UniProt P18242)
[5] = molecular target: AEA-DA lipid probe targets in Neuro2a cells (Mus musculus, UniProt P06795)
[6] = molecular target: T3, AEA-DA lipid probe targets in Neuro2a cells (Mus musculus, UniProt P15626)
T3 sequence (P15626 1-218): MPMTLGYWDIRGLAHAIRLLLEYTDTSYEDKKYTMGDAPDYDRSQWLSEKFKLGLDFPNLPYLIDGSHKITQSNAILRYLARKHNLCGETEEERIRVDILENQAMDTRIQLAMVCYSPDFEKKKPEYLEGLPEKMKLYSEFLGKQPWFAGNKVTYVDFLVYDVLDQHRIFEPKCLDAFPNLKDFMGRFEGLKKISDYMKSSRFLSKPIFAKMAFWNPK

[7] = molecular target: T4, AEA-DA lipid probe targets in Neuro2a cells (Mus musculus, UniProt Q925I1)
T4 sequence (Q925I1 1-591): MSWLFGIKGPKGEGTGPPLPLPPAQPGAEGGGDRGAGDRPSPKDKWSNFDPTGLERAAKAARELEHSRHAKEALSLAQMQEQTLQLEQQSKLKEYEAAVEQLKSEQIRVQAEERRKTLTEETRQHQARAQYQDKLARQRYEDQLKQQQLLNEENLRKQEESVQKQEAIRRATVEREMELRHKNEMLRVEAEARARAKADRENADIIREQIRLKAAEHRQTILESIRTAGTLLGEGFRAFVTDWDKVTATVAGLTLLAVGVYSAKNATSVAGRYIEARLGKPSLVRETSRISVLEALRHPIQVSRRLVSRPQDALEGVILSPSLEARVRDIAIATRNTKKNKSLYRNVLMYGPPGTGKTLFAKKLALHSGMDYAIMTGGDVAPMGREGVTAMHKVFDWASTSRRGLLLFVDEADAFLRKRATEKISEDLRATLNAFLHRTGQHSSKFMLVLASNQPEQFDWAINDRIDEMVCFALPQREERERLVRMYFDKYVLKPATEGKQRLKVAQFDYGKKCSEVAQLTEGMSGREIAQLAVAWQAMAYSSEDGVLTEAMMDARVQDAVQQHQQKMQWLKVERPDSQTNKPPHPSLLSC

[8] = molecular target: AEA-DA lipid probe targets in Neuro2a cells (Mus musculus, UniProt O88696)
[9] = molecular target: AEA-DA lipid probe targets in Neuro2a cells (Mus musculus, UniProt Q9D8N0)
[10] = molecular target: T5, AEA-DA lipid probe targets in Neuro2a cells (Mus musculus, UniProt Q8JZN5)
T5 sequence (Q8JZN5 42-625): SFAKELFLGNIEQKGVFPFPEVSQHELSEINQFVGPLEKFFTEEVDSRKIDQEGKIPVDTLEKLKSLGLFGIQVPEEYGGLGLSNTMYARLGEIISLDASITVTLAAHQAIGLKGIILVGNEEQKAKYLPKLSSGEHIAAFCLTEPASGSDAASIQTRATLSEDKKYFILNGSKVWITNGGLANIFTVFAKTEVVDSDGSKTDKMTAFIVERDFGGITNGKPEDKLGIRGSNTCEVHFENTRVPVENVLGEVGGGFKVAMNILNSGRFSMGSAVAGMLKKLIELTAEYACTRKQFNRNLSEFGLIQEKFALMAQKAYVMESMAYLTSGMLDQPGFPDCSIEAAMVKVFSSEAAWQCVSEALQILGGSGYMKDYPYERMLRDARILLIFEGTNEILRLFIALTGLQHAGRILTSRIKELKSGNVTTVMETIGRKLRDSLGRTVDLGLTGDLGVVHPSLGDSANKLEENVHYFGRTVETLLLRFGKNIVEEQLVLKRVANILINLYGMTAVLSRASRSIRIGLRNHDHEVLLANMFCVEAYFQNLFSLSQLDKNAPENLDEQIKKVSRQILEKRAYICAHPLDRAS

Sequence of AEA-DA lipid probe targets in Neuro2a cells (Mus musculus, UniProt O88696) (O88696 53-272): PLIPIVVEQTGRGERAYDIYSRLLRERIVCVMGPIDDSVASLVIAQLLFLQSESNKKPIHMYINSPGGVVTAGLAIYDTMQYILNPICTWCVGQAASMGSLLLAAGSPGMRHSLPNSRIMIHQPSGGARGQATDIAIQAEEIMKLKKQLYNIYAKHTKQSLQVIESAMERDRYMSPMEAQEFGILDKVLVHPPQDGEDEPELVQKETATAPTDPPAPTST
Sequence of AEA-DA lipid probe targets in Neuro2a cells (Mus musculus, UniProt P18242) (P18242 65-410): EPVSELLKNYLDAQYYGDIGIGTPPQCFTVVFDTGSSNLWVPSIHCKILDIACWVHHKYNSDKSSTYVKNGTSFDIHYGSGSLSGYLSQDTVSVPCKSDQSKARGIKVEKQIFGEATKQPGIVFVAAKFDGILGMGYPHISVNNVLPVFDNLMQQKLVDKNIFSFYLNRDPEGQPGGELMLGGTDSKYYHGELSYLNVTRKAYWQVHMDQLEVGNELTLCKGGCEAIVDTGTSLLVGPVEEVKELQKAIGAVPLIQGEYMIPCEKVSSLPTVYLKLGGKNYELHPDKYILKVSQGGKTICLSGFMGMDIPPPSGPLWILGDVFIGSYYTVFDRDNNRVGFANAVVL
Sequence of AEA-DA lipid probe targets in Neuro2a cells (Mus musculus, UniProt P06795) (P06795 whole entry): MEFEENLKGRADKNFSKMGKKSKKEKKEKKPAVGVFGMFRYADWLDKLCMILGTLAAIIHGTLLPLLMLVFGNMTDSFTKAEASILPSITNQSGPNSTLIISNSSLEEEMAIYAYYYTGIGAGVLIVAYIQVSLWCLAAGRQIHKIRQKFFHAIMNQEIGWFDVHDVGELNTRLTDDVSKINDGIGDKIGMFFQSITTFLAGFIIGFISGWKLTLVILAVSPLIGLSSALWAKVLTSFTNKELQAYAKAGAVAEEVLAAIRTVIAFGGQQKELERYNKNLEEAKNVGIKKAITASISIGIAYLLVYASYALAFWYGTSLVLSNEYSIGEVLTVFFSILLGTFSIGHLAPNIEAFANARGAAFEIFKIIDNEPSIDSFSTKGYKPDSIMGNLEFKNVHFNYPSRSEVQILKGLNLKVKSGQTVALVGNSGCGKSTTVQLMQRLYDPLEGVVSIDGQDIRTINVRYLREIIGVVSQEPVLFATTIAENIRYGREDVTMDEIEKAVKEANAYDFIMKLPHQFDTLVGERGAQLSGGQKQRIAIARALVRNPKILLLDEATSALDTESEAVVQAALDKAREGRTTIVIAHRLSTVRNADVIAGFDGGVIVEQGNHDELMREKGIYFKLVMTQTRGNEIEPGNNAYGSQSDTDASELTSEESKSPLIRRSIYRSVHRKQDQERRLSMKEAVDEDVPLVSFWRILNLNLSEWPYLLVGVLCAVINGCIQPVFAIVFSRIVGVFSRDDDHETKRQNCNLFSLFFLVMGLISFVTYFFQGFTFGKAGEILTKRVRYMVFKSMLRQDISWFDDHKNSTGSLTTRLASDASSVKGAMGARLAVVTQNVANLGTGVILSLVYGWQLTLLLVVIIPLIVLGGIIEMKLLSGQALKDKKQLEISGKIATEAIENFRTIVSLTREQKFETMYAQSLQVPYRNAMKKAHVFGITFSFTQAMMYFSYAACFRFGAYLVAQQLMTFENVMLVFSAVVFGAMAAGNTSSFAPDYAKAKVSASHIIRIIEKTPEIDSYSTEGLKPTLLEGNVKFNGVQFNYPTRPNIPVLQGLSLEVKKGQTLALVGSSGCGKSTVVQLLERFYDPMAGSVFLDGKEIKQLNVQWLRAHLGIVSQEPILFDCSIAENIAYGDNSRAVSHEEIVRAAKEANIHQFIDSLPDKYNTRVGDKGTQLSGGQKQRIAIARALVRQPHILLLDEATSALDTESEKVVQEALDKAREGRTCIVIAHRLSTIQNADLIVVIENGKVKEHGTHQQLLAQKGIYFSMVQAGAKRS
Sequence of AEA-DA lipid probe targets in Neuro2a cells (Mus musculus, UniProt Q9D8N0) (Q9D8N0 whole entry): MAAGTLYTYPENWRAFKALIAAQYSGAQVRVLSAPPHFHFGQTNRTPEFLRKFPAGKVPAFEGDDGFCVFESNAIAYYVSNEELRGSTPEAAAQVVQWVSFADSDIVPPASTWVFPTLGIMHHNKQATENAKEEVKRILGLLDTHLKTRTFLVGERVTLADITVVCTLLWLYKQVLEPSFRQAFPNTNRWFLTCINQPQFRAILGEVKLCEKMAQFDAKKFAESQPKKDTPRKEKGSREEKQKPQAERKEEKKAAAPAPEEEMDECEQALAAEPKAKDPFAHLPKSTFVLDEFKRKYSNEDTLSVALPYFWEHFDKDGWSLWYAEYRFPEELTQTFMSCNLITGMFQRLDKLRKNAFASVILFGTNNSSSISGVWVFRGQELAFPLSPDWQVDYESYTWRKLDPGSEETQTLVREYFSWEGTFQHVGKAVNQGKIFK
Sequence of AEA-DA lipid probe targets in Neuro2a cells (Mus musculus, UniProt Q8BG32) (Q8BG32 whole entry): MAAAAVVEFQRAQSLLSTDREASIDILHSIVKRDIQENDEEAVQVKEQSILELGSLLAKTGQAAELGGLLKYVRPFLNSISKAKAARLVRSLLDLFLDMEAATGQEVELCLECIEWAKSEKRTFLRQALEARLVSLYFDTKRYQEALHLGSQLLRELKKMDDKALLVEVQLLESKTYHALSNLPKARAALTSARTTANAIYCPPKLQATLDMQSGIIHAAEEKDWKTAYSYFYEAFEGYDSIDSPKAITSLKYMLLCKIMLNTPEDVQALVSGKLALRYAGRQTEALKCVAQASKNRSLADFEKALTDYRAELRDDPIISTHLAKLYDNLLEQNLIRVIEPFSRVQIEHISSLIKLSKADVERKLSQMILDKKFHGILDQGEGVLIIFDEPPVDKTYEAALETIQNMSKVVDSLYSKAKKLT

CCCCC/C=C\C/C=C\C/C=C\C/C=C\CCCC(=O)NCCO [AEA, anandamide, reference compound]
SILAC ratio Cisd1 ([1]; competitor 200 μM): 1.6 | SILAC ratio Psmd11 ([2]; competitor 200 μM): 1.2 | SILAC ratio, Cers5 ([3]; competitor 200 μM): 2.1 | SILAC ratio, Ctsd ([4]; competitor 200 μM): 1.2 | SILAC ratio, Abcb1b ([5]; competitor 200 μM): 2.3 | SILAC ratio, Gstm2 ([6]; competitor 200 μM): 2.7 | SILAC ratio Atad3 ([7]; competitor 200 μM): 1.5 | SILAC ratio Clpp ([8]; competitor 200 μM): 1.4 | SILAC ratio Eef1g ([9]; competitor 200 μM): 1.4

O=C(/C=C/c1cccnc1)NCCCCC1CCN(C(=O)c2ccccc2)CC1 [FK-866, reference compound]
SILAC ratio Cisd1 ([1]; competitor 25 μM): 1.1 | SILAC ratio Psmd11 ([2]; competitor 25 μM): 1.3 | SILAC ratio, Cers5 ([3]; competitor 25 μM): 1.1 | SILAC ratio, Ctsd ([4]; competitor 25 μM): 1.0 | SILAC ratio Acad9 ([10]; competitor 25 μM): 1.2 | SILAC ratio, Abcb1b ([5]; competitor 25 μM): 5.4 | SILAC ratio, Gstm2 ([6]; competitor 25 μM): 1.5 | SILAC ratio Atad3 ([7]; competitor 25 μM): 1.2 | SILAC ratio Clpp ([8]; competitor 25 μM): 1.0 | SILAC ratio Eef1g ([9]; competitor 25 μM): 1.5

CN1CCN(C(=O)c2c(-c3ccccc3)c3cc([N+](=O)[O-])ccc3n2C)CC1 [KML110, (1-Methyl-5-nitro-3-phenyl-1H-indol-2-yl)(4-methylpiperazin-1-yl)methanone]
SILAC ratio Cisd1 ([1]; competitor 25 μM): 1.6 | SILAC ratio Psmd11 ([2]; competitor 25 μM): 1.3 | SILAC ratio, Cers5 ([3]; competitor 25 μM): 1.6 | SILAC ratio, Ctsd ([4]; competitor 25 μM): 1.4 | SILAC ratio Acad9 ([10]; competitor 25 μM): 1.7 | SILAC ratio, Abcb1b ([5]; competitor 25 μM): 5.7 | SILAC ratio Atad3 ([7]; competitor 25 μM): 1.2 | SILAC ratio Clpp ([8]; competitor 25 μM): 2.4 | SILAC ratio Eef1g ([9]; competitor 25 μM): 1.4

CN1CCN(C(=O)c2[nH]c3ccc([N+](=O)[O-])cc3c2-c2ccccc2)CC1 [MJN228, (4-Methylpiperazin-1-yl)(5-nitro-3-phenyl-1H-indol-2-yl)methanone]
SILAC ratio Cisd1 ([1]; competitor 10 μM): 1.3 | SILAC ratio Cisd1 ([1]; competitor 25 μM): 1.5 | SILAC ratio Cisd1 ([1]; competitor 50 μM): 1.4 | SILAC ratio Cisd1 ([1]; competitor 100 μM): 2.4 | SILAC ratio Psmd11 ([2]; competitor 25 μM): 1.3 | SILAC ratio, Cers5 ([3]; competitor 10 μM): 1.2 | SILAC ratio, Cers5 ([3]; competitor 25 μM): 1.8 | SILAC ratio, Cers5 ([3]; competitor 50 μM): 2.1 | SILAC ratio, Cers5 ([3]; competitor 100 μM): 3.0 | SILAC ratio, Ctsd ([4]; competitor 10 μM): 1.2 | SILAC ratio, Ctsd ([4]; competitor 25 μM): 1.2 | SILAC ratio, Ctsd ([4]; competitor 50 μM): 1.2 | SILAC ratio, Ctsd ([4]; competitor 100 μM): 1.1 | SILAC ratio Acad9 ([10]; competitor 10 μM): 1.4 | SILAC ratio Acad9 ([10]; competitor 25 μM): 1.2 | SILAC ratio Acad9 ([10]; competitor 50 μM): 1.4 | SILAC ratio Acad9 ([10]; competitor 100 μM): 1.4 | SILAC ratio, Abcb1b ([5]; competitor 10 μM): 2.6 | SILAC ratio, Abcb1b ([5]; competitor 25 μM): 4.0 | SILAC ratio, Abcb1b ([5]; competitor 50 μM): 9.4 | SILAC ratio, Abcb1b ([5]; competitor 100 μM): 20.0 | SILAC ratio, Gstm2 ([6]; competitor 10 μM): 1.6 | SILAC ratio, Gstm2 ([6]; competitor 25 μM): 1.6 | SILAC ratio, Gstm2 ([6]; competitor 100 μM): 2.2 | SILAC ratio Atad3 ([7]; competitor 10 μM): 1.1 | SILAC ratio Atad3 ([7]; competitor 25 μM): 1.4 | SILAC ratio Atad3 ([7]; competitor 50 μM): 1.3 | SILAC ratio Atad3 ([7]; competitor 100 μM): 1.4 | SILAC ratio Clpp ([8]; competitor 10 μM): 1.4 | SILAC ratio Clpp ([8]; competitor 25 μM): 2.1 | SILAC ratio Clpp ([8]; competitor 50 μM): 3.6 | SILAC ratio Clpp ([8]; competitor 100 μM): 9.0 | SILAC ratio Eef1g ([9]; competitor 10 μM): 1.1 | SILAC ratio Eef1g ([9]; competitor 25 μM): 1.1 | SILAC ratio Eef1g ([9]; competitor 50 μM): 1.0 | SILAC ratio Eef1g ([9]; competitor 100 μM): 1.3

C=CCN(C)CCCCCCOc1ccc(C(=O)c2ccc(Br)cc2)c(F)c1 [Ro 48-8071, reference compound]
SILAC ratio Cisd1 ([1]; competitor 25 μM): 1.1 | SILAC ratio Psmd11 ([2]; competitor 25 μM): 0.9 | SILAC ratio, Cers5 ([3]; competitor 25 μM): 1.3 | SILAC ratio, Ctsd ([4]; competitor 25 μM): 0.5 | SILAC ratio Acad9 ([10]; competitor 25 μM): 1.3 | SILAC ratio, Abcb1b ([5]; competitor 25 μM): 1.7 | SILAC ratio, Gstm2 ([6]; competitor 25 μM): 1.3 | SILAC ratio Atad3 ([7]; competitor 25 μM): 1.0 | SILAC ratio Clpp ([8]; competitor 25 μM): 0.9 | SILAC ratio Eef1g ([9]; competitor 25 μM): 0.9
